Results reported in US20250215052A1, “INHIBITORS OF PICK1 AND USES THEREOF” (University of Copenhagen, priority 2018, published 2025).

Test system: PICK1
Assay: Peptide accumulation in striatal neurons with PICK1 knock down or replacement
Type: cell-based, rat
Conditions: 5 nM, 1 hour
Text: For shRNA-mediated knock down and replacement studies of PICK1, striatal neurons were transduced at 14 DIV with three different lentivirus; FUGWH1sh18GFPPICK1 (GFP-PICK1WT), FUGWH1sh18eGFP (GFP-sh18) or FUGWH1sh18deleGFP (GFP). The replacement plasmid GFP-PICK1WT expresses a short hairpin (sh18) that targets endogenous PICK1 and a resistant eGFP tagged PICK1. The GFP control vector (GFP) was created by removing the short hairpin (Holst et al., 2013, Jensen et al., 2018). Lentiviruses were produced as described previously (Rasmussen et al., 2009).
Neurons were rinsed in PBS and blocked in 0.05% Triton-X100 with 5% goat serum for 20 min-at room temperature. Subsequently, neurons were labelled with rabbit anti-DARRP32 (1:800) and chicken anti-GFP (1:2000) for 1 hour at room temperature, before incubation with 1:500 goat anti-rabbit Alexa-647 and goat anti-chicken Alexa-488 secondary antibodies.
Images for quantification of peptide were acquired with a Zeiss LSM 710 laser-scanning microscopy. Quantification of the TMR-TAT-P4-(C5)2 intensity was performed by defining each neuron as a region of interest. The mean intensity values obtained from each neuron were subsequently normalized to the average of the intensity values of the GFP transduced neurons

Substance: TAMRA-YGRKKRRQRRR-PEG4-(HWLKV)2 [TMR-TAT-P4-(C5)2]
- peptide signal in sh18 + GFP-PICK1 neurons vs control (GFP): significantly increased
